{"source": "patent US4550186A", "about": "“Binuclear copper (II) carboxylates formed from amine-carboxyboranes” (Duke University, priority 1983, dated 1985)", "key": {"thymidylate synthetase": {"target": "thymidylate synthetase (Mus musculus, UniProt P07607)", "sequence (P07607 whole entry)": "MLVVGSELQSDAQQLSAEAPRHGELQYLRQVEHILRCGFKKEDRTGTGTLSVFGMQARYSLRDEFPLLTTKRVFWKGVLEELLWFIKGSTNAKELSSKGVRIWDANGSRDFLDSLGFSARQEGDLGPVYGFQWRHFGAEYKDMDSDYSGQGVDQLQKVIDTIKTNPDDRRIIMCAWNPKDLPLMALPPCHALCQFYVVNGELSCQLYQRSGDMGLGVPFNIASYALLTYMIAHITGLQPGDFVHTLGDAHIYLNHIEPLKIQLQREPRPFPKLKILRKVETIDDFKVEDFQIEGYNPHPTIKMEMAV", "experiment": "In vitro thymidylate synthetase activity", "type": "biochemical", "conditions": "0.25 to 1.0 mM", "experimental": "CF1 male mice (~30 g) were implanted with 2×10^6 Ehrlich ascites tumor cells, intraperitoneally on Day 0. Compound I was suspended by homogenation in 0.05% polysorbate.80-water and administered intraperitoneally at 10 and 20 mg/kg for 9 days to determine its effectiveness for inhibition of tumor growth. Mice were sacrificed on Day 10, and the ascites fluid was collected from the peritoneal cavity. The volume and ascrit (packed cell volume) were determined for each animal and the percent inhibition of tumor growth was calculated. For the metabolic studies, mice were treated on Days 8 and 9 with 10 mg/kg of Compound I, intraperitoneally. […]\nCarbamyl phosphate synthetase activity was determined using the reaction medium of Kalman et al [Am. […] Citrulline formed from ornithine was measured at 490 nm by the method of Archibald [J. Biol. Chem., 156, 121 (1944)]. […] The ^14 CO2 generated in 15 min was trapped in 1M KOH and counted. Thymidylate synthetase activity was determined using a post-mitochondrial supernatant (9000 g×10 min) and 5 μCi of 5-^3 H-deoxyuridine monophosphate (14 Ci/mmol) according to the method of Kampf et al [ J. Med. Chem., 19, 903 (1976)]. ^14 C-Formate incorporation into purines was determined by the method of Spassova et al [Biochem. Pharmacol., 25, 923 (1976)] using 0.5 μCi of ^14 C-formic acid (52.0 mCi/mmol). […] The Rf value for xanthine monophosphate was scraped and counted. […]"}, "[1]": {"system": "thymidylate monophosphate, diphosphate and triphosphate levels of Ehrlich ascites cells", "experiment": "In vivo thymidine incorporation into nucleotide pools", "parameters": "species or system mouse", "experimental": "(§1) CF1 male mice (~30 g) were implanted with 2×10^6 Ehrlich ascites tumor cells, intraperitoneally on Day 0. Compound I was suspended by homogenation in 0.05% polysorbate.80-water and administered intraperitoneally at 10 and 20 mg/kg for 9 days to determine its effectiveness for inhibition of tumor growth. Mice were sacrificed on Day 10, and the ascites fluid was collected from the peritoneal cavity. The volume and ascrit (packed cell volume) were determined for each animal and the percent inhibition of tumor growth was calculated. For the metabolic studies, mice were treated on Days 8 and 9 with 10 mg/kg of Compound I, intraperitoneally. The animal was sacrificed on Day 10 and the ascites fluid harvested. The in vitro metabolic studies were performed at […] final concentration of Compound I.\nDeoxythymidine as well as deoxythymidylate monophosphate and diphosphate kinase activities were measured spectrophotometrically at 340 nm at 30 min using reduced nicotinamide adenine dinucleotide (0.1 μmole). Thymidine incorporation (6-^3 H - 21.5 Ci/mmol) into nucleotides was measured using the medium of Maley and Ochoa [J. Biol. Chem., 223, 1538 (1958)]. The reaction medium was extracted with ether and the aqueous layer plated on PEI cellulose F plates and eluted with 0.5N formic acid: 0.6M LiCl (1:1). Areas which correlated with Rf values of thymidine, thymidylate monophosphate, diphosphate and triphosphate standards were scraped and counted."}, "Holtzman male rats": {"system": "Holtzman male rats", "experiment": "3H-Cholesterol distribution in rats", "type": "in vivo, rat", "conditions": "for Orally administered 3H-Cholesterol: 14 days 10 mg/Kg/Day, Treated", "experimental": "Holtzman male rats (~350 g) were administered the test agent for 14 days orally. On day 13, 10 μCi of ^3 H-cholesterol (40.7 mCi/mmol) was administered intraperitoneally in mice and orally in rats, and feces were collected for the next 24 hr. Twenty-four hours after cholesterol administration, the major organs were excised and samples of blood, chyme and urine were obtained. Homogenates (10%) were prepared of the tissues which were combusted and counted. Some tissue samples were plated on Whatman #1 filter paper, dried and digested for 24 hr in base at 40° C. and counted. Results were expressed as dpm/mg of wet tissue and dpm/per total organ."}, "[2]": {"system": "protein synthesis of Ehrlich ascites cells", "experiment": "In vitro whole cell incorporation: protein synthesis", "type": "cell-based, mouse", "conditions": "preliminary, 60 min, read-out: ID50, protein synthesis", "experimental": "as §1\nIn vitro incorporation of ^3 H-thymidine, ^3 H-uridine, or ^3 H-leucine was determined using 10^6 Ehrlich ascites cells, 1 μCi labeled precursor, minimum essential medium and varying final concentrations of drug from 0.25-1.0 mM. The tubes were incubated at 37° C. for 60 min and inactivated by trichloroacetic acid. The acid insoluble labeled deoxyribonucleic acid was collected on GF/F glass filter discs and ribonucleic acid and protein were precipitated on nitrocellulose filters by vacuum suction. Results are expressed as dpm of incorporated precursor per hour per 10^6 cells."}, "[3]": {"conditions": "10 mg/kg/day I.P. on Days 8 and 9"}}, "data": [{"substance": "{Cu[(CH3)3 N.BH2 CO2 ]2.(CH3)3 N.BH2 COOH} [Compound I]", "values": [{"measurement": "thymidylate synthetase inhibition", "setting": "thymidylate synthetase", "result": "not inhibited"}, {"measurement": "3H-Thymidine incorporation into thymidylate monophosphate pool reduced", "setting": "[1]", "result": 57, "unit": "%"}, {"measurement": "TDP pool reduced", "setting": "[1]", "result": 19, "unit": "%"}, {"measurement": "TTP pool reduced", "setting": "[1]", "result": 10, "unit": "%"}, {"measurement": "Thymidylate diphosphate levels", "setting": "[1]; [3]", "result": "89 ± 11", "unit": "% Control"}, {"measurement": "Thymidylate monophosphate levels", "setting": "[1]; [3]", "result": "43 ± 6", "unit": "% Control"}, {"measurement": "Thymidylate triphosphate levels", "setting": "[1]; [3]", "result": "90 ± 10", "unit": "% Control"}, {"measurement": "Orally administered 3H-Cholesterol", "setting": "Holtzman male rats; rat Brain", "result": "15,783 DPM/Total Organ"}, {"measurement": "Orally administered 3H-Cholesterol", "setting": "Holtzman male rats; rat Chyme", "result": "218,742 DPM/Total Organ"}, {"measurement": "Orally administered 3H-Cholesterol", "setting": "Holtzman male rats; rat Feces", "result": "294,644 DPM/Total Organ"}, {"measurement": "Orally administered 3H-Cholesterol", "setting": "Holtzman male rats; rat Heart", "result": "20,060 DPM/Total Organ"}, {"measurement": "Orally administered 3H-Cholesterol", "setting": "Holtzman male rats; rat Kidney", "result": 565, "unit": "DPM/Total Organ"}, {"measurement": "Orally administered 3H-Cholesterol", "setting": "Holtzman male rats; rat Large Intestine", "result": "59,665 DPM/Total Organ"}, {"measurement": "Orally administered 3H-Cholesterol", "setting": "Holtzman male rats; rat Liver", "result": "27,695 DPM/Total Organ"}, {"measurement": "Orally administered 3H-Cholesterol", "setting": "Holtzman male rats; rat Lung", "result": "17,106 DPM/Total Organ"}, {"measurement": "Orally administered 3H-Cholesterol", "setting": "Holtzman male rats; rat Small Intestine", "result": "16,514 DPM/Total Organ"}, {"measurement": "Orally administered 3H-Cholesterol", "setting": "Holtzman male rats; rat Spleen", "result": "13,241 DPM/Total Organ"}, {"measurement": "Orally administered 3H-Cholesterol", "setting": "Holtzman male rats; rat Stomach", "result": "33,901 DPM/Total Organ"}, {"measurement": "3H-cholesterol reduced (dpm/organ vs control)", "setting": "Holtzman male rats; rat brain", "result": 46, "unit": "%"}, {"measurement": "higher content of cholesterol", "setting": "Holtzman male rats; rat chyme", "result": 113, "unit": "%"}, {"measurement": "3H-cholesterol reduced (dpm/organ vs control)", "setting": "Holtzman male rats; rat heart", "result": 18, "unit": "%"}, {"measurement": "3H-cholesterol reduced (dpm/organ vs control)", "setting": "Holtzman male rats; rat kidney", "result": 91, "unit": "%"}, {"measurement": "higher content of cholesterol", "setting": "Holtzman male rats; rat large intestine", "result": 27, "unit": "%"}, {"measurement": "3H-cholesterol reduced (dpm/organ vs control)", "setting": "Holtzman male rats; rat liver", "result": 42, "unit": "%"}, {"measurement": "higher content of cholesterol", "setting": "Holtzman male rats; rat small intestine", "result": 81, "unit": "%"}, {"measurement": "higher content of cholesterol", "setting": "Holtzman male rats; rat stomach", "result": 198, "unit": "%"}, {"measurement": "higher content of cholesterol", "setting": "Holtzman male rats; rat urine", "result": 336, "unit": "%"}, {"measurement": "IC50", "setting": "[2]", "result": 863, "unit": "µM"}]}]}
